One data set concerns rats on high-fat diets. Conditions: cited from earlier work.
The test system of a further data set is mice. Conditions: cited from earlier work.
The test system of data set [1] is human hepatoma HepG2 cells. The data set is described as follows: Oleate:Palmitate-induced lipid accumulation in hepatocytes (Nile-Red). Conditions: CBD 20 μM; 0.3 mM oleate:palmitate 2:1; 24 hr; FIG. 1. The data set is classed as cell-based. Here is the method:
To test whether CBG and/or CBD have the ability to reduce lipid accumulation in hepatocytes, we have utilized an in vitro model of fat accumulation in hepatocytes. Briefly, human hepatoma HepG2 cells were maintained at 37° C. in 5% CO2 in DMEM medium supplemented with 10% FCS, 2 mM 1-glutamine, 1 mM sodium pyruvate, 100 U/mL penicillin and […] streptomycin. Free fatty acids (2:1, molar ratio, oleic and palmitic acids) were mixed with bovine serum albumin (BSA). Cells were incubated with fatty acid-BSA complex in FCS-free culture medium at 0.3 mM final concentration of fatty acid and 1% of BSA. Control cell cultures were incubated with medium containing the vehicle. Compounds were tested in a range of concentrations (as detailed in each figure) in the presence/absence of fatty acids. The synergistic effect between two compounds was also tested once validating their individual effect. After 24 hr of incubation with the compounds, the cells were washed, incubated with 1 μg/mL mixture of Nile-Red/Hoechst solution for 15 mins at 37° C. protected from light. Fluorescence was measured by the Cytation-3 plate reader at ex:488 nm/em:550 for Nile-Red and Hoechst, respectively. Results were normalized to total protein levels of each well, and presented as a change in the accumulation of lipids in comparison with Vehicle-treated group.

The subject of data set [2] is high-fat diet-induced obese mice. The data set is described as follows: Glucose and insulin homeostasis in high-fat diet-induced obese mice. The data set is classed as in vivo, mouse. Conditions: 28 days ip, CBG 25 mg/kg/day; for HFD-induced hyperglycemia (fasting blood glucose levels) / glucose tolerance (intraperitoneal glucose tolerance test) / serum insulin levels (hyperinsulinemia): CBD 10 mg/kg/day; for HFD-induced hyperglycemia (fasting blood glucose levels) / glucose tolerance (intraperitoneal glucose tolerance test): alone or combined; for HFD-induced hyperglycemia (fasting blood glucose levels): FIG. 6A; for glucose tolerance (intraperitoneal glucose tolerance test): FIG. 6B, C; for serum insulin levels (hyperinsulinemia): FIG. 7A. Here is the method: (§1) Next, the inventors tested whether the isolated and combined effect of phytocannabinoids has the ability to reverse fatty liver (hepatic steatosis) and improve metabolism in high-fat diet-induced obese mouse. Briefly, six weeks old, male C57Bl/6J mice were fed ad libitum with a high-fat diet (HFD; D12492; 60% of calories from fat, 20% from protein, and 20% from carbohydrates; Research Diets) or a mouse standard diet (STD; NIH no. 31 rodent diet) for 14 weeks. Then, the mice were treated for 28 days with CBD (10 mg/kg/day, ip), CBG (25 mg/kg/day, ip), CBD+CBG (10 mg/kg/day+25 mg/kg/day, ip respectively) or vehicle (EtOH:cremophor:saline; 1:1:18). The mouse groups were labeled as defined here: mice on a STD treated with vehicle (STD-Veh), mice on a HFD treated with vehicle (HFD-Veh), mice on a HFD treated with CBD (HFD-CBD), mice on a HFD treated with CBG (HFD-CBG), and mice on a HFD treated with CBD+CBG (HFD-CBD+CBG).
Glucose and insulin homeostasis was assessed by (i) measuring fasting blood glucose (Elite glucometer, Bayer, Germany) and serum insulin (Ultra-Sensitive Mouse Insulin ELISA kit, EMD Millipore, MA) levels, (ii) evaluating Homeostatic Model Assessment for Insulin Resistance (HOMA-IR), and (iii) performing intraperitoneal glucose tolerance test.

For data set [3] the test system is unchanged. The data set is described as follows: Lipid balance (circulating triglycerides and cholesterol) in high-fat diet-induced obese mice. The class given is in vivo, mouse. Conditions: 28 days ip; for serum triglycerides: CBD 10 mg/kg/day, FIG. 8A. On the procedure:
as §1
Lipid balance was assessed by evaluating the levels of low-density lipoprotein (LDL)-cholesterol, total cholesterol and triglycerides by using Cobas C111 Chemistry Analyzer (Roche, Germany).

The test system is the same in data set [4]. As to the kind of experiment: Hepatic steatosis in high-fat diet-induced obese mice. The class given is in vivo, mouse. Conditions: 28 days ip, CBG 25 mg/kg/day; for HFD-induced hepatic steatosis (liver triglyceride levels, fat vacuoles and ballooning in hepatocytes): CBD 10 mg/kg/day, alone or combined, FIGS. 5A, B. Here is the method: as §1
Hepatic steatosis (Fatty liver) was measured by (i) quantifying the amount of triglycerides and cholesterol in the liver by using a specific lipid extraction method followed by colorimetric chemical analyses using the Cobas C111 Chemistry Analyzer (Roche, Germany), and (ii) evaluating the reversal of fatty liver by histology. Briefly, paraffin-embedded liver sections (5 tiM) were be used to evaluate hepatic morphology (using H & E staining).

The test system is the same in data set [5]. The data set is described as follows: Antiobesity effect (fat and lean mass, EchoMRI) in high-fat diet-induced obese mice. The class given is in vivo, mouse. Conditions: 28 days ip; CBG 25 mg/kg/day; FIG. 9B, C. Here is the method: as §1
Antiobesity effect was assessed by measuring body weight. Total fat and lean masses were determined at the end of the treatment by EchoMRI-100 (Echo Medical Systems LLC, Houston Tex.).

For the next data set, the system named is obese mice. Particulars: cited from earlier work.

Each structure is given as a SMILES string.

Regarding `C=C(C)[C@@H]1CCC(C)=C[C@H]1c1c(O)cc(CCCCC)cc1O` [CBD, cannabidiol, reference compound], the weight gain entry with rats on high-fat diets is on record as “inhibits weight gain”. In addition, in the data set on mice, the “development of alcohol-induced hepatosteatosis” value is reported as “inhibits”. The “lipid accumulation in hepatocytes” value in data set [1] was “significantly reduce lipid accumulation”. In data set [2], the “HFD-induced hyperglycemia (fasting blood glucose levels)” value was “significantly normalized”, the “glucose tolerance (intraperitoneal glucose tolerance test)” value is given as “significant improvement” and the “serum insulin levels (hyperinsulinemia)” value was “ineffective in reducing hyperinsulinemia”. Besides, the serum triglycerides result in data set [3] (CBG 25 mg/kg/day) is recorded as “Reduction”. In addition, the “HFD-induced hepatic steatosis (liver triglyceride levels, fat vacuoles and ballooning in hepatocytes)” value in data set [4] is “significantly attenuated”.
As for `CCCCCc1cc(O)c(C/C=C(\C)CCC=C(C)C)c(O)c1` [CBG, cannabigerol], in data set [5], the fat mass entry is “significant reduction” and the lean mass entry was “increased”. In data set [2], the “HFD-induced hyperglycemia (fasting blood glucose levels)” value is on record as “significantly normalized”, the “glucose tolerance (intraperitoneal glucose tolerance test)” value is “significant improvement” and the “serum insulin levels (hyperinsulinemia)” value is “trend toward reduction”. Besides, the HOMA-IR entry in data set [2] (FIG. 7B) is “normalization”. In addition, in data set [3] (CBG 25 mg/kg/day), the serum triglycerides entry is “Reduction”. Also, the “total circulating cholesterol levels” value in data set [3] (CBG 25 mg/kg/day alone or with CBD 10 mg/kg/day, FIG. 8B) is on record as “significantly reduced”. In addition, in data set [3] (CBG 25 mg/kg/day, FIG. 8C), the LDL-Cholesterol levels entry is listed as “significant reduction”. Further, in data set [4], the “HFD-induced hepatic steatosis (liver triglyceride levels, fat vacuoles and ballooning in hepatocytes)” value is reported as “significantly attenuated”. In addition, the liver cholesterol levels entry in data set [4] (FIG. 5C) is given as “trend toward reduction”.
`CCCc1cc(O)c2c(c1)OC(C)(C)[C@@H]1CCC(C)=C[C@@H]21` [THCV, Δ^9-tetrahydrocannabivarin]: in the data set on obese mice, the insulin sensitivity result is listed as “improves insulin sensitivity” and the “triglyceride (TG) accumulation within the livers” value is recorded as “decreases”.
